Source: US9758524B2, “4-imidazopyridazin-1-yl-benzamides as Btk inhibitors” (Merck Sharp & Dohme B.V., priority 2011, dated 2017)
Where “and” joins values, the source holds several entries; their conditions need not be identical. Equal values may be shown once. Read-outs that look alike come from different tables or passages of the source.

How the values were obtained:
[1] = molecular target: Src enzyme (Homo sapiens (Human), UniProt P12931); assay: Src enzyme activity (IMAP fluorescence polarization assay); settings: read-out: EC50 Src activity values; IMAP, 60 min pre-incubation, 4 μM ATP
Src enzyme, sequence (P12931 whole entry, looked up): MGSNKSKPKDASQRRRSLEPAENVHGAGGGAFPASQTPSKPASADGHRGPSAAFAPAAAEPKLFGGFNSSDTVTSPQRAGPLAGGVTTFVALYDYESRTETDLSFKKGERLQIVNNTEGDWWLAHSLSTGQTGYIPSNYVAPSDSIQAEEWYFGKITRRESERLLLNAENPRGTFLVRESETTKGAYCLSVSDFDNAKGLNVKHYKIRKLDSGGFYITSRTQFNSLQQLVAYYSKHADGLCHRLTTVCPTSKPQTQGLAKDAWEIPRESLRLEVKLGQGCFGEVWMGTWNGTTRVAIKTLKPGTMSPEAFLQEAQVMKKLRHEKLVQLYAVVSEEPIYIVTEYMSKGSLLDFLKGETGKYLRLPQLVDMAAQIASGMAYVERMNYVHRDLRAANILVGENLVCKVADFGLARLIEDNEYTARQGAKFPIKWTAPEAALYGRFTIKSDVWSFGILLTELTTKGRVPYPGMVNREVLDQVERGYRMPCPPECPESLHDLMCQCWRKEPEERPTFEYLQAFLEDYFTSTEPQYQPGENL

[2] = molecular target: Btk enzyme (His-Btk) (Homo sapiens (Human), UniProt Q06187); assay: Btk enzyme activity (IMAP fluorescence polarization assay)
Btk enzyme (His-Btk), sequence (Q06187 whole entry): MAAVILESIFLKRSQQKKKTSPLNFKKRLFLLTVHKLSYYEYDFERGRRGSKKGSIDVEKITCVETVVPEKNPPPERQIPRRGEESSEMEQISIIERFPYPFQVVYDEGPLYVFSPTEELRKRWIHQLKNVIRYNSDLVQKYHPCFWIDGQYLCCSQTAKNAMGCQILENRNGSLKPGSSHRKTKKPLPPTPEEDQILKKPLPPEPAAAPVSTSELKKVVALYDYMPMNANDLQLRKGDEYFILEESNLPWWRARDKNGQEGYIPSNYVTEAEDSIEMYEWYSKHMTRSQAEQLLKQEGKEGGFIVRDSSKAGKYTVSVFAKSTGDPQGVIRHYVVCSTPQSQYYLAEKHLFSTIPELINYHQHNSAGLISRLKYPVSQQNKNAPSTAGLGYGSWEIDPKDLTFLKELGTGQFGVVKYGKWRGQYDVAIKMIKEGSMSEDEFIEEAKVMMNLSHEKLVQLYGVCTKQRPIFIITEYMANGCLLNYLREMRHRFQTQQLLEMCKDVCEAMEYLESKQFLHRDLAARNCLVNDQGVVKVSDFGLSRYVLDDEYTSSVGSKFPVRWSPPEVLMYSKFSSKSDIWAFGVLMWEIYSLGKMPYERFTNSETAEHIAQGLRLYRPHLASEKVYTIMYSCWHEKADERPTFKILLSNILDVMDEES
Method: Inhibition of kinase activity can be measured using the Immobilized Metal Assay for Phosphochemicals (IMAP) assay. IMAP is a homogeneous fluorescence polarization (FP) assay based on affinity capture of phosphorylated peptide substrates. IMAP uses fluorescein-labeled peptide substrates that, upon phosphorylation by a protein kinase, bind to so-called IMAP nanoparticles, which are derivatized with trivalent metal complexes.
Final peptide substrate concentration in assay is 50 nM.

[3] = molecular target: Lck enzyme (Homo sapiens (Human), UniProt P06239); assay: Lck enzyme activity (IMAP fluorescence polarization assay)
Lck enzyme, sequence (P06239 whole entry): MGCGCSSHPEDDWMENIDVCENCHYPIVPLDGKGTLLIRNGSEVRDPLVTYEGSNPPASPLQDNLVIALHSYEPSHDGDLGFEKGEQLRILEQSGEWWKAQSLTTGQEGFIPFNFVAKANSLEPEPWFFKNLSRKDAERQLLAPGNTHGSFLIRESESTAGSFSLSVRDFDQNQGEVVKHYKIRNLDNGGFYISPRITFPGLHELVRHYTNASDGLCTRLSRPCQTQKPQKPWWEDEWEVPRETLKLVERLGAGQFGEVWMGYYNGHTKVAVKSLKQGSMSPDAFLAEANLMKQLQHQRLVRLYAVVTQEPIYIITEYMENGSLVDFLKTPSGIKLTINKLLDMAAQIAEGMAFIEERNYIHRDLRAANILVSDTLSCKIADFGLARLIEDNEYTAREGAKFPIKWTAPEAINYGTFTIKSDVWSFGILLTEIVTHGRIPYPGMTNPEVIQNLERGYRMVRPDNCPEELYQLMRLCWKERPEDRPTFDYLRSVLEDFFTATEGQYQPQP

[4] = molecular target: FynT enzyme (Homo sapiens (Human), UniProt P06241); assay: FynT enzyme activity (IMAP fluorescence polarization assay); format: biochemical; settings: 60 min pre-incubation, 0.2 μM ATP
FynT enzyme, sequence (P06241 other isoform, or with tags, fused parts or gaps): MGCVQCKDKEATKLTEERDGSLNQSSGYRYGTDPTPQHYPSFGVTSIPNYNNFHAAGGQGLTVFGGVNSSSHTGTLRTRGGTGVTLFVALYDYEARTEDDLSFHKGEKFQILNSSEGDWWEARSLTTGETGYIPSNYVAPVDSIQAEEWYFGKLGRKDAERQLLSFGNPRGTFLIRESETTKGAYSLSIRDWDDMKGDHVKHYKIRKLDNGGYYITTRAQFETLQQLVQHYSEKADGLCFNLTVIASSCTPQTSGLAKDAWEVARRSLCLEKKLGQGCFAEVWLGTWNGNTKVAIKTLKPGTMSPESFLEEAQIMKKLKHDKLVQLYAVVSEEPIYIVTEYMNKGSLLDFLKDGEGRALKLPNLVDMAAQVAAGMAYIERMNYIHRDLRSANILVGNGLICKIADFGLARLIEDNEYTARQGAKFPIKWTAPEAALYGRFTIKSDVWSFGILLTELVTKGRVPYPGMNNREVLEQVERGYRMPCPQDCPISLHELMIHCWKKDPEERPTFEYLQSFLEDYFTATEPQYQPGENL
Procedure, shortened: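 Human FynT pre-incubated with compounds 60 min at room temperature, then reacted 2 h at room temperature with fluorescein-labelled p34cdc2 peptide (100 nM final). Stopped with IMAP binding solution; fluorescence polarization read after 60 min. Activity as % of ±ATP control difference; EC50 by curve fitting.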

[5] = molecular target: Lyn enzyme (Homo sapiens (Human), UniProt P07948); assay: Lyn enzyme activity (IMAP fluorescence polarization assay)
Lyn enzyme, sequence (P07948 whole entry): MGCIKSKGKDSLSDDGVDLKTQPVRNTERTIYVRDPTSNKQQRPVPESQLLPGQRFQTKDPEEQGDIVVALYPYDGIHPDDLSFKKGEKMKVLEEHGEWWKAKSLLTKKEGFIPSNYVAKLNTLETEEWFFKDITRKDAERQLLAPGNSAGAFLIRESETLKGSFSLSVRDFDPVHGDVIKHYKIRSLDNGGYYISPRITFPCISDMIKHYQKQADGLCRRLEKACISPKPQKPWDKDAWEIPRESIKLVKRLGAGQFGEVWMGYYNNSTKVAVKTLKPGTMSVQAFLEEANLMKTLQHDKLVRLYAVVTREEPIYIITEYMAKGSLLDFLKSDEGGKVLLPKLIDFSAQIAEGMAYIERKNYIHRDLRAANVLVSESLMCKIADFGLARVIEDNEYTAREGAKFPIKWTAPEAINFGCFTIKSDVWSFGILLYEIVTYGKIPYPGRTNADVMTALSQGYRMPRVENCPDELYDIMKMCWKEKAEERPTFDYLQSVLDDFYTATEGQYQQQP

[6] = IMAP, 60 min pre-incubation, 5 μM ATP, bin bound in nM
[7] = IMAP, 60 min pre-incubation, 6 μM ATP, bin bound in μM
[8] = read-out: EC50 Btk activity values, IMAP, 60 min pre-incubation, 5 μM ATP, bin bound in nM
[9] = read-out: EC50 Lck activity values, IMAP, 60 min pre-incubation, 6 μM ATP, bin bound in μM
[10] = read-out: EC50 Lyn activity values, 60 min pre-incubation, 2 μM ATP, bin bound in μM
[11] = IMAP, 60 min pre-incubation, 5 μM ATP, bin bound in μM

EC50 [1]	EC50 [2]	EC50 Btk activity values [2, 6]	EC50 [3]	EC50 Lck activity values [3, 7]	EC50 [4]	EC50 ([5]; EC50 Lyn activity values, 60 min pre-incubation, 2 μM ATP, bin bound in nM)	EC50 ([5]; EC50 Lyn activity values, 60 min pre-incubation, 2 μM ATP, bin bound in μM)	EC50 [2, 8]	EC50 [3, 9]	EC50 [5, 10]	EC50 Btk activity values [2, 11]	Structure (SMILES)
≥ 1000 nM	10 to 100 nM	<100 nM	0.1 to 1 µM	<1 µM	≥ 1000 nM	≥ 100 nM	< 1000 nM and ≥ 1000 nM					CC#CC(=O)N1CCC[C@H]1c1nc(-c2ccc(C(=O)Nc3nccs3)cc2)c2c(N)nccn12 [Example 60, (S)-4-(8-amino-3-(1-but-2-ynoylpyrrolidin-2-yl)imidazo[1,5-a]pyrazin-1-yl)-N-(thiazol-2-yl)benzamide]
≥ 1000 nM					≥ 1000 nM			< 10 nM	≥ 1 µM	≥ 1000 nM		C=CC(=O)N1CCCC[C@H]1c1nc(-c2ccc(C(=O)Nc3cc(CCC)ccn3)cc2)c2c(N)nccn12 [Example 61, (S)-4-(3-(1-acryloylpiperidin-2-yl)-8-aminoimidazo[1,5-a]pyrazin-1-yl)-N-(4-propylpyridin-2-yl)benzamide]
≥ 1000 nM			0.1 to 1 µM	<1 µM	≥ 1000 nM			< 10 nM		≥ 1000 nM		C=CC(=O)N1CCC[C@H]1c1nc(-c2ccc(C(=O)Nc3cc(C(F)(F)F)ccn3)cc2)c2c(N)nccn12 [Example 62, (S)-4-(3-(1-acryloylpyrrolidin-2-yl)-8-aminoimidazo[1,5-a]pyrazin-1-yl)-N-(4-(trifluoromethyl)pyridin-2-yl)benzamide]
≥ 1000 nM					≥ 1000 nM			< 10 nM	≥ 1 µM	≥ 1000 nM		CC#CC(=O)N1CCCC[C@H]1c1nc(-c2ccc(C(=O)Nc3cc(C(F)(F)F)ccn3)cc2)c2c(N)nccn12 [Example 63, (S)-4-(8-amino-3-(1-but-2-ynoylpiperidin-2-yl)imidazo[1,5-a]pyrazin-1-yl)-N-(4-(trifluoromethyl)pyridin-2-yl)benzamide]
≥ 1000 nM			0.1 to 1 µM	<1 µM	≥ 1000 nM			< 10 nM		≥ 1000 nM		CC#CC(=O)N1CCCC[C@H]1c1nc(-c2ccc(C(=O)Nc3cc(CCC)ccn3)cc2)c2c(N)nccn12 [Example 64, (S)-4-(8-amino-3-(1-but-2-ynoylpiperidin-2-yl)imidazo[1,5-a]pyrazin-1-yl)-N-(4-propylpyridin-2-yl)benzamide]
≥ 1000 nM					≥ 1000 nM			< 10 nM	≥ 1 µM	≥ 1000 nM		CC(C)c1ccnc(NC(=O)c2ccc(-c3nc([C@@H]4CCCN4C(=O)/C=C/CN(C)C)n4ccnc(N)c34)cc2)c1 [Example 65, (S,E)-4-(8-amino-3-(1-(4-(dimethylamino)but-2-enoyl)pyrrolidin-2-yl)imidazo[1,5-a]pyrazin-1-yl)-N-(4-isopropylpyridin-2-yl)benzamide]
≥ 1000 nM					≥ 1000 nM			< 10 nM	≥ 1 µM	≥ 1000 nM		C=CS(=O)(=O)N1CCCC[C@H]1c1nc(-c2ccc(C(=O)Nc3ccccn3)cc2C)c2c(N)nccn12 [Example 66, 4-(8-amino-3-((S)-1-(vinylsulfonyl)piperidin-2-yl)imidazo[1,5-a]pyrazin-1-yl)-3-methyl-N-(pyridin-2-yl)benzamide]
≥ 1000 nM					≥ 1000 nM			< 10 nM	≥ 1 µM	≥ 1000 nM		CC#CC(=O)N1CCCC[C@H]1c1nc(-c2ccc(C(=O)Nc3cc(CCC)ccn3)c(F)c2)c2c(N)nccn12 [Example 67, (S)-4-(8-amino-3-(1-but-2-ynoylpiperidin-2-yl)imidazo[1,5-a]pyrazin-1-yl)-2-fluoro-N-(4-propylpyridin-2-yl)benzamide]
≥ 1000 nM	100 to 1000 nM				≥ 1000 nM				≥ 1 µM	≥ 1000 nM	<1000 nM	C=CC(=O)N1CCCC[C@H]1c1nc(-c2ccc(C(=O)Nc3ccccn3)cc2C)c2c(N)nccn12 [Example 68, 4-(3-((S)-1-acryloylpiperidin-2-yl)-8-aminoimidazo[1,5-a]pyrazin-1-yl)-3-methyl-N-(pyridin-2-yl)benzamide]
≥ 1000 nM	10 to 100 nM	<100 nM			≥ 1000 nM				≥ 1 µM	≥ 1000 nM		CN(C)C/C=C/C(=O)NCc1nc(-c2ccc(C(=O)Nc3ccccn3)cc2)c2c(N)nccn12 [Example 69, (E)-4-(8-amino-3-((4-(dimethylamino)but-2-enamido)methyl)imidazo[1,5-a]pyrazin-1-yl)-N-(pyridin-2-yl)benzamide]
≥ 1000 nM	10 to 100 nM	<100 nM			≥ 1000 nM				≥ 1 µM	≥ 1000 nM		CC(C)c1ccnc(NC(=O)c2ccc(-c3nc([C@@H]4CCCN4C(=O)c4ccnc(Cl)n4)n4ccnc(N)c34)cc2)c1 [Example 70, (S)-4-(8-amino-3-(1-(2-chloropyrimidine-4-carbonyl)pyrrolidin-2-yl)imidazo[1,5-a]pyrazin-1-yl)-N-(4-isopropylpyridin-2-yl)benzamide]
≥ 1000 nM	10 to 100 nM	<100 nM			≥ 1000 nM				≥ 1 µM	≥ 1000 nM		Nc1nccn2c([C@@H]3CCCN3C(=O)c3ccnc(Cl)n3)nc(-c3ccc(C(=O)Nc4nc5c(s4)CCCC5)cc3)c12 [Example 71, (S)-4-(8-amino-3-(1-(2-chloropyrimidine-4-carbonyl)pyrrolidin-2-yl)imidazo[1,5-a]pyrazin-1-yl)-N-(4,5,6,7-tetrahydrobenzo[d]thiazol-2-yl)benzamide]
≥ 1000 nM	100 to 1000 nM				≥ 1000 nM				≥ 1 µM	≥ 1000 nM	<1000 nM	COC/C=C/C(=O)N1CCCC[C@H]1c1nc(-c2ccc(C(=O)Nc3cccnn3)cc2)c2c(N)nccn12 [Example 72, (S,E)-4-(8-amino-3-(1-(4-methoxybut-2-enoyl)piperidin-2-yl)imidazo[1,5-a]pyrazin-1-yl)-N-(pyridazin-3-yl)benzamide]
≥ 1000 nM	10 to 100 nM	<100 nM			≥ 1000 nM				≥ 1 µM	≥ 1000 nM		CN(C)C/C=C/C(=O)N1CCCC[C@H]1c1nc(-c2ccc(C(=O)Nc3cccnn3)cc2)c2c(N)nccn12 [Example 73, (S,E)-4-(8-amino-3-(1-(4-(dimethylamino)but-2-enoyl)piperidin-2-yl)imidazo[1,5-a]pyrazin-1-yl)-N-(pyridazin-3-yl)benzamide]
≥ 1000 nM	100 to 1000 nM				≥ 1000 nM				≥ 1 µM	≥ 1000 nM	<1000 nM	Nc1nccn2c([C@@H]3CCCCN3C(=O)c3ccnc(Cl)n3)nc(-c3ccc(C(=O)Nc4cccnn4)cc3)c12 [Example 74, (S)-4-(8-amino-3-(1-(2-chloropyrimidine-4-carbonyl)piperidin-2-yl)imidazo[1,5-a]pyrazin-1-yl)-N-(pyridazin-3-yl)benzamide]
≥ 1000 nM					≥ 1000 nM			< 10 nM	≥ 1 µM	≥ 1000 nM		COC/C=C/C(=O)N(C)[C@@H](C)c1nc(-c2ccc(C(=O)Nc3cc(C(F)(F)F)ccn3)cc2)c2c(N)nccn12 [Example 75, (S,E)-4-(8-amino-3-(1-(4-methoxy-N-methylbut-2-enamido)ethyl)imidazo[1,5-a]pyrazin-1-yl)-N-(4-(trifluoromethyl)pyridin-2-yl)benzamide]
≥ 1000 nM			0.1 to 1 µM	<1 µM	≥ 1000 nM			< 10 nM		≥ 1000 nM		CCCc1ccnc(NC(=O)c2ccc(-c3nc([C@H](C)N(C)C(=O)/C=C/CN(C)C)n4ccnc(N)c34)cc2)c1 [Example 76, (S,E)-4-(8-amino-3-(1-(4-(dimethylamino)-N-methylbut-2-enamido)ethyl)imidazo[1,5-a]pyrazin-1-yl)-N-(4-propylpyridin-2-yl)benzamide]
≥ 1000 nM					≥ 1000 nM			< 10 nM	≥ 1 µM	≥ 1000 nM		CCCc1ccnc(NC(=O)c2ccc(-c3nc([C@@H]4CCCN4C(=O)/C=C/CN4CCCC4)n4ccnc(N)c34)cc2)c1 [Example 77, (S,E)-4-(8-amino-3-(1-(4-(pyrrolidin-1-yl)but-2-enoyl)pyrrolidin-2-yl)imidazo[1,5-a]pyrazin-1-yl)-N-(4-propylpyridin-2-yl)benzamide]
≥ 1000 nM					≥ 1000 nM			< 10 nM	≥ 1 µM	≥ 1000 nM		CN(C)C/C=C/C(=O)N1CCCC[C@H]1c1nc(-c2ccc(C(=O)Nc3ccccn3)cc2)c2c(N)nccn12 [Example 78, (S,E)-4-(8-amino-3-(1-(4-(dimethylamino)but-2-enoyl)piperidin-2-yl)imidazo[1,5-a]pyrazin-1-yl)-N-(pyridin-2-yl)benzamide]
